Measurements from patent US10532988B2, “Crystalline forms of neurotrophin mimetic compounds and their salts” (PharmatrophiX, Inc., priority 2009, dated 2020).
Where a name gives a salt, the structure may show the parent alone. Read-outs that look alike come from different tables or passages of the source.

Columns and labels:
[1] = Hygroscopicity - dynamic vapor sorption (DVS); type: physicochemical; conditions: for mass greater than the original value at 0% RH after desorption: DVS desorption phase, end at 0% RH; for RH up to which the sample did not adsorb much moisture (rapid sorption above): DVS sorption phase from 0% RH; for moisture sorption at 95% RH / moisture sorption at 90% RH: 25° C.
Method: Hygroscopicity—Dynamic Vapor Sorption (DVS):
Samples were analyzed using an automated dynamic vapor sorption analyzer. The sample (about 1-10 mg) was dried in the instrument 0% RH for 6 hours.

[2] = Solubility in water (incremental solvent addition, visual observation); conditions: for solubility: thermodynamic from solid
Method: Milligram size quantities of each sample were placed into a vial. Water was added and the vials were stirred for a few minutes, followed by visual observation for remaining solids. The solvent was incrementally added until the solids were dissolved, or a maximum volume of solvent was added and the experiment was terminated.

[3] = Pharmacokinetic study of salt forms in rat plasma and brain after oral gavage; type: in vivo; conditions: for AUC%Extrap / AUCINF / AUCall / Cmax / T1/2 / Tmax / Brain:Plasma Ratio / Maximum Brain Level / Kp at 8 h / AUC / AUC(0-inf) / half-life: male rats, single 25 mg/kg free base by oral gavage; for Brain:Plasma Ratio / Maximum Brain Level / Kp at 8 h: brain at 1, 3 and 8 hours; for Kp at 8 h: brain and plasma, read-out: Brain:Plasma Ratio
Method: The objective of this study was to provide preliminary pharmacokinetic information regarding the exposure of different salt forms of LM11A-31 in rat plasma and brain when dosed by oral gavage. Groups consisting of nine male rats received single doses of 25 mg/kg free base by oral gavage. Plasma samples were obtained from three rats per timepoint after administration (0.5, 1, 2, 3, 4, and 8 hours) and brain samples were collected at 1-, 3-, and 8-hour terminations (three rats per time point).
The samples were analyzed by LC-MS/MS to determine the plasma and brain concentrations of the test article. Pharmacokinetic analysis of the plasma concentration data was conducted using noncompartmental analysis with WinNonlin Version 4.1.

[4] = Stability study of salts and free base under stress, HPLC total area normalization; type: physicochemical
Method: The scaled up salts and free base were challenged by heat (solids stored at 25 and 60° C. for 1 week), oxidation (solids stored in oxygen headspace at 25° C. for 1 week), light (solids exposed to ≥1×ICH UV confirmatory conditions), and solutions (HPLC diluent) at 25 and 40° C. for 1 week. These samples were analyzed, along with unstressed controls, by HPLC to characterize their stability.
Crystalline forms (i.e., salts and free base) of the present invention were analyzed by total area normalization (TAN). The samples were dissolved in 1:1 Acetonitrile (ACN):Water (H2O) at a concentration of 0.5 mg/mL.
Stressed samples were analyzed using HPLC to determine their impurity profiles.
The stability results shown in Table 10 represent the averages of two injections of duplicate sample preparations.

[5] = Stability study, qualitative proton NMR of stressed samples; type: physicochemical; conditions: heat stress (solids stored at 60° C.)
Method: To confirm the little or no degradation observed in the HPLC stability study, some samples (solids stored at 60° C. and oxidation) of four of the salts and free base were further analyzed by proton NMR (i.e., HNMR). The analysis was qualitative.

[6] = Oxidation Ambient (oxygen headspace, 25° C., 1 week)
[7] = Photo Stability - Exposed (UV, ICH confirmatory conditions)
[8] = Solution (water and acetonitrile 1:1) - 40 C., 1 week
[9] = Solution (water and acetonitrile 1:1) - Ambient, 1 week

Row | Compound | mass greater than the original value at 0% RH after desorption [1] | RH up to which the sample did not adsorb much moisture (rapid sorption above) [1] | moisture sorption at 95% RH ([1]; DVS sorption phase) | AUC%Extrap ([3]; plasma) | AUCINF ([3]; plasma) | AUCall ([3]; plasma) | Cmax ([3]; plasma) | T1/2 ([3]; plasma) | Tmax ([3]; plasma) | Maximum Brain Level [3] | HPLC Total Area Normalization - Area % Purity [4, 6] | HPLC Total Area Normalization - Area % Purity ([4]; Photo Stability - Dark Control) | HPLC Total Area Normalization - Area % Purity [4, 7] | HPLC Total Area Normalization - Area % Purity ([4]; Solid State - 60 C., 1 week) | HPLC Total Area Normalization - Area % Purity ([4]; Solid State - Ambient, 1 week) | HPLC Total Area Normalization - Area % Purity [4, 8] | HPLC Total Area Normalization - Area % Purity [4, 9] | solubility [2] | overall hygroscopicity (in words) ([1]; DVS) | other results
1 | 2-amino-3-methyl-N-(2-morpholinoethyl)-pentanamide Digluconate | about 4 wt % | 45 % RH | 110 wt % |  |  |  |  |  |  |  |  |  |  |  |  |  |  |  |  | 
2 | 2-amino-3-methyl-N-(2-morpholinoethyl)-pentanamide Disulfate | about 4 wt % | 60 % RH | 140 wt % | 5.26% | 410 ng·h/mL | 416 ng·h/mL | 413 ng/mL | 66 min | 30 min | 77 ng/g tissue | 99.97 Area % | 99.97 Area % | 99.94 Area % | 99.98 Area % | 99.98 Area % | 99.75 Area % | 99.90 Area % |  |  | solubility in water ([2]; ambient temperature): > 3; Brain:Plasma Ratio [3]: 0.6-1.8; overall PK properties compared with the free base ([3]; rat, oral gavage): better PK properties than the free base; exposure (AUC and Cmax) compared with the free base ([3]; rat, oral gavage, plasma): higher exposure
3 | 2-amino-3-methyl-N-(2-morpholinoethyl)-pentanamide Monoedisylate |  | 80 % RH |  | 1.52% | 243 ng·h/mL | 247 ng·h/mL | 284 ng/mL | 42.5 min | 30 min | 98 ng/g tissue | 99.95 Area % | 99.97 Area % | 99.86 Area % | 99.95 Area % | 99.79 Area % | 99.90 Area % | 999.81 Area % |  |  | crude solubility in water [2]: ≤ 14 mg/mL; moisture sorption at 90% RH ([1]; DVS sorption phase): 85 wt %; Brain:Plasma Ratio [3]: 1.4-3.3
4 | CC[C@H](C)[C@H](N)C(=O)NCCN1CCOCC1 (stereo in doubt) [Free base, 2-amino-3-methyl-N-(2-morpholinoethyl)-pentanamide] | original weight | 45 % RH | 96 wt % | 4.81% |  |  |  |  |  | 105 ng/g tissue | 99.97 Area % | 99.97 Area % | 99.98 Area % |  | 100 Area % | 99.89 Area % |  | > 30 mg/mL |  | moisture adsorbed from 45% to 50% RH ([1]; DVS sorption phase, 45% to 50% RH): ~10 wt %; degradation after heat stress by proton NMR [5]: slight degradation; Kp at 8 h ([3]; rat): 2 to 3.5; AUC ([3]; rat, plasma): 321 ng·h/mL; AUC(0-inf) ([3]; rat, plasma): 316 ng·h/mL; half-life ([3]; rat, plasma): 63 min; Cmax ([3]; rat, plasma, read-out: Cmax): 371 ng/mL; Tmax ([3]; rat, plasma, read-out: Tmax): 30 min
5 | CCC(C)C(N)C(=O)NCCN1CCOCC1.CS(=O)(=O)O.CS(=O)(=O)O (centres unmarked) [Dimesylate, 2-amino-3-methyl-N-(2-morpholinoethyl)-pentanamide Dimesylate] | about 3 wt % | 55 % RH | 110 wt % |  |  |  |  |  |  |  |  |  |  |  |  |  |  | ≥ 28 mg/mL |  | 
6 | CCC(C)C(N)C(=O)NCCN1CCOCC1.O=S(=O)(O)c1ccc2ccccc2c1.O=S(=O)(O)c1ccc2ccccc2c1 (centres unmarked) [Dinapsylate, 2-amino-3-methyl-N-(2-morpholinoethyl)-pentanamide Dinapsylate] |  | about 80 % RH |  | 3.44% | 280 ng·h/mL | 270 ng·h/mL | 335 ng/mL | 114 min | 30 min | 123 ng/g tissue | 99.81 Area % | 99.85 Area % | 99.82 Area % | 99.87 Area % | 99.90 Area % | 99.96 Area % | 99.87 Area % |  | did not appear deliquescent | water taken up at high humidity ([1]; DVS, high humidity, no equilibrium at the highest humidity): 3 to 4 wt %; overall PK properties compared with the free base ([3]; rat, oral gavage): better PK properties than the free base; terminal plasma half-life compared with the free base ([3]; rat, oral gavage, plasma): longer terminal plasma half-life
7 | CCC(C)C(N)C(=O)NCCN1CCOCC1.Cc1ccc(S(=O)(=O)O)cc1.Cc1ccc(S(=O)(=O)O)cc1 (centres unmarked) [Ditosylate, 2-amino-3-methyl-N-(2-morpholinoethyl)-pentanamide Ditosylate] |  | 80 % RH |  | 1.45% |  |  |  |  |  | 120 ng/g tissue | 99.92 Area % | 99.94 Area % | 99.93 Area % | 99.94 Area % | 99.82 Area % | 99.91 Area % | 99.89 Area % | 0.5 to 0.7 mg/mL |  | moisture sorption at 90% RH ([1]; DVS sorption phase): 30 wt %; Kp at 8 h ([3]; rat): 1 to 5.7; AUC ([3]; rat, plasma): 295 ng·h/mL; AUC(0-inf) ([3]; rat, plasma): 290 ng·h/mL; half-life ([3]; rat, plasma): 37.8 min; Cmax ([3]; rat, plasma, read-out: Cmax): 296 ng/mL; Tmax ([3]; rat, plasma, read-out: Tmax): 30 min
8 | CCC(C)C(N)C(=O)NCCN1CCOCC1.O=C(O)C(=O)O (centres unmarked) [Monooxalate, 2-amino-3-methyl-N-(2-morpholinoethyl)-pentanamide Monooxalate] |  | 50 % RH | 1.5 wt % |  |  |  |  |  |  |  |  |  |  |  |  |  |  |  | did not take up much water | 
9 | CCC(C)C(N)C(=O)NCCN1CCOCC1 (centres unmarked) [di-HCl salt, 2-amino-3-methyl-N-(2-morpholinoethyl)-pentanamide] | about 5 wt % | 20 % RH | 140 wt % |  |  |  |  |  |  |  |  |  |  |  |  |  |  | > 30 mg/mL | quite hygroscopic | 
